Marks after values point to notes of the source that are not given here.
How the values were obtained:
Assay type in all cases: in vivo, human
[1] = system: central memory T cells; test: Central memory T cell cultured ELISPOT, phase 2 trial in advanced NSCLC
In short: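 Patient PBMC were pre-stimulated for 10 days with 10 μg/ml peptide plus rIL2 (10 U/ml, days 1, 4, 7), then replated at 5×10^4/well with irradiated autologous PBMC and 10 μg/ml peptide, and SFC were counted. A response was positive if >5 SFC above, and > mean+2 SD of, the irrelevant HBV epitope, and twofold the pre-vaccination response plus 2 SD.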

[2] = system: central memory T cells; test: Cultured IFN-γ ELISPOT after 10-day in vitro stimulation of PBMC, phase 1/2 NSCLC trial of OSE-2101; design: key to net SFC of vaccine positive CTL responses: —, indicates SFC response did not meet criteria and vaccine response was negative
In short: (§1)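 Patient PBMC (pre-treatment, Week 9, Week 18, after s.c. dosing every 3 weeks) were stimulated 10 days with 10 μg/ml of each epitope plus rIL-2 10 U/ml on days 1, 4 and 7. Cells were then tested 20 h with irradiated autologous PBMC and 10 μg/ml vaccine or wild-type peptide. Net SFC per 5×10^4 cells, irrelevant HBV peptide subtracted.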

[3] = system: central memory T cells; test: Cultured IFN-γ ELISPOT after 10-day in vitro stimulation of PBMC, phase 1/2 colon cancer trial of OSE-2101; design: key to net SFC of vaccine positive CTL responses: —, indicates SFC response did not meet criteria and vaccine response was negative; settings: for Mean SFC: 10 colon patients
In short: as §1

Question: With LLTFWNPPV [CEA.24V9 A] as the sequence, how does the “% of patients with positive CTL/central memory T cell response” value ([1]; phase 2, month 9) read?
Answer: Its value is 57%.

Question: And the “patients with positive CTL/central memory T cell response / patients tested” value ([1]; phase 2, month 9)?
Answer: Its value is 4/7.

Question: What about the “% of patients with positive CTL/central memory T cell response” value ([1]; phase 2, month 12) of the same sequence?
Answer: Its value is 50%.

Question: And the “patients with positive CTL/central memory T cell response / patients tested” value ([1]; phase 2, month 12)?
Answer: The value was 2/4.

Question: What about the “% of patients with positive CTL/central memory T cell response” value ([1]; phase 2, week 9) of the same sequence?
Answer: The value was 39%.

Question: What about the “patients with positive CTL/central memory T cell response / patients tested” value ([1]; phase 2, week 9) of the same sequence?
Answer: Its value is 13/33.

Question: And the “% of patients with positive CTL/central memory T cell response” value ([1]; phase 2, week 18)?
Answer: The value was 31%.

Question: What about the “patients with positive CTL/central memory T cell response / patients tested” value ([1]; phase 2, week 18) of the same sequence?
Answer: Its value is 10/32.

Question: What about the “% of patients with positive CTL/central memory T cell response” value ([1]; phase 2, week 30) of the same sequence?
Answer: The value was 28%.

Question: And the “patients with positive CTL/central memory T cell response / patients tested” value ([1]; phase 2, week 30)?
Answer: The value was 9/23.

Question: And the “No. Positive Responses” value ([2]; 6 NSCLC patients, Week 9)?
Answer: The value was 0.

Question: What about the “Mean SFC” value ([2]; 6 NSCLC patients, Week 18) of the same sequence?
Answer: The value was 34.3 SFC per 50,000 cells.

Question: And the “No. Positive Responses” value ([2]; 6 NSCLC patients, Week 18)?
Answer: The value was 2.

Question: What about the “net SFC of vaccine positive CTL responses” value (shortened to “net SFC”) ([2]; NSCLC patient 201, Week 9) of the same sequence?
Answer: The value was “—”.

Question: What about the “net SFC” value ([2]; NSCLC patient 201, Week 18) of the same sequence?
Answer: Its value is “—”.

Question: And the “net SFC” value ([2]; NSCLC patient 502, Week 9)?
Answer: Its value is “—”.

Question: And the “net SFC” value ([2]; NSCLC patient 502, Week 18)?
Answer: The value was “—”.

Question: What about the “net SFC” value ([2]; NSCLC patient 504, Week 9) of the same sequence?
Answer: The value was “—”.

Question: And the “net SFC” value ([2]; NSCLC patient 504, Week 18)?
Answer: The value was 25.3^d) SFC per 50,000 cells.

Question: What about the “net SFC” value ([2]; NSCLC patient 505, Week 9) of the same sequence?
Answer: The value was “—”.

Question: What about the “net SFC” value ([2]; NSCLC patient 505, Week 18) of the same sequence?
Answer: The value was “—”.

Question: And the “net SFC” value ([2]; NSCLC patient 532, Week 9)?
Answer: The value was “—”.

Question: What about the “net SFC” value ([2]; NSCLC patient 532, Week 18) of the same sequence?
Answer: Its value is 43.3 SFC per 50,000 cells.

Question: What about the “net SFC” value ([2]; NSCLC patient 651, Week 9) of the same sequence?
Answer: Its value is “—”.

Question: What about the “net SFC” value ([2]; NSCLC patient 651, Week 18) of the same sequence?
Answer: The value was “—”.

Question: What about the “Mean SFC” value ([3]; Week 9) of the same sequence?
Answer: Its value is 86.5 SFC per 50,000 cells.

Question: And the “Mean SFC” value ([3]; Week 18)?
Answer: The value was 172.0 SFC per 50,000 cells.

Question: And the “net SFC” value ([3]; colon patient 551, Week 9)?
Answer: Its value is 42.7^d) SFC per 50,000 cells.

Question: And the “net SFC” value ([3]; colon patient 551, Week 18)?
Answer: Its value is “—”.

Question: What about the “net SFC” value ([3]; colon patient 601, Week 9) of the same sequence?
Answer: Its value is 118.0 SFC per 50,000 cells.

Question: What about the “net SFC” value ([3]; colon patient 601, Week 18) of the same sequence?
Answer: The value was 96.0 SFC per 50,000 cells.

Question: And the “net SFC” value ([3]; colon patient 602, Week 9)?
Answer: Its value is “—”.

Question: And the “net SFC” value ([3]; colon patient 602, Week 18)?
Answer: The value was “—”.

Question: What about the “net SFC” value ([3]; colon patient 603, Week 9) of the same sequence?
Answer: The value was 63.0 SFC per 50,000 cells.

Question: What about the “net SFC” value ([3]; colon patient 603, Week 18) of the same sequence?
Answer: The value was 20.7 SFC per 50,000 cells.

Question: What about the “net SFC” value ([3]; colon patient 604, Week 9) of the same sequence?
Answer: Its value is 55.3 SFC per 50,000 cells.

Question: And the “net SFC” value ([3]; colon patient 604, Week 18)?
Answer: The value was 187.0 SFC per 50,000 cells.

Question: What about the “net SFC” value ([3]; colon patient 605, Week 9) of the same sequence?
Answer: Its value is 43.7 SFC per 50,000 cells.

Question: And the “net SFC” value ([3]; colon patient 605, Week 18)?
Answer: Its value is 109.7 SFC per 50,000 cells.

Question: What about the “net SFC” value ([3]; colon patient 606, Week 9) of the same sequence?
Answer: The value was “—”.

Question: What about the “net SFC” value ([3]; colon patient 606, Week 18) of the same sequence?
Answer: Its value is “—”.

Question: And the “net SFC” value ([3]; colon patient 607, Week 9)?
Answer: The value was 196.7 SFC per 50,000 cells.

Question: And the “net SFC” value ([3]; colon patient 607, Week 18)?
Answer: Its value is 586.7 SFC per 50,000 cells.

Question: And the “net SFC” value ([3]; colon patient 608, Week 9)?
Answer: Its value is “—”.

Question: What about the “net SFC” value ([3]; colon patient 608, Week 18) of the same sequence?
Answer: The value was “—”.

Question: What about the “net SFC” value ([3]; colon patient 609, Week 9) of the same sequence?
Answer: The value was “—”.

Question: And the “net SFC” value ([3]; colon patient 609, Week 18)?
Answer: The value was 31.7 SFC per 50,000 cells.

From US11191820B2, “Method for inducing early T memory response with short peptides anti-tumor vaccine” (OSE IMMUNOTHERAPEUTICS, priority 2015, dated 2021)
